Laboratory results from patent US20240182867A1, “CHEMICAL REPROGRAMMING OF HUMAN SOMATIC CELLS INTO PLURIPOTENT CELLS” (Peking University, priority 2021, published 2024).

Tests used:
human somatic cells = test: hCiPSC colonies at the end of reprogramming after withdrawing individual chemicals from stage I or II; assay type: cell-based; settings: factor removed
Description: Cells were maintained at 37° C. with 21% 02 and 5% CO2. The induction medium was changed every 3-4 days. HEFs were seeded at a density of 1-1.5×10^4 cells per well of a 12-well plate in 15%. FBS-DMEM medium. Change the medium into stage I induction medium on the next day. For stage I induction, single layer epithelial-like cells would emerge at day 4-6 and approach 80%-100% confluence at day 8-12, then change the medium into stage II induction medium. For stage II induction, multi-layered colonies appeared after 8-12 days treatment and these cell colonies would continually grow larger. After totally 16-20 days' stage II treatment, change the medium into stage III condition. For stage III induction, 8-12 days treatment of stage III medium is required and then change the medium into stage IV condition. For stage IV induction, VPA (500 μM) was included in the first 4 days. Primary hCiPSC colonies would emerge after 6-8 days' treatment. At the end of stage IV, immunofluorescent staining of co-expression of OCT4 and NANOG was used to confirm the generation of primary hCiPSC colonies. Primary hCiPSC colony number was calculated as the number of the compact OCT4 positive colonies. Reprogramming efficiency was calculated as the number of primary hCiPSC colonies divided by the number of input HEFs.
In several experiments, to testing the reprogramming efficiency after removing each small molecules, the indicated small molecules were removed from the cocktails. The concentration of the small molecules used to regulate the same pathway or targets were indicated as follow: GSK3 inhibitors (CHIR99021: 3-15 μM; TD114-2: 0.5-2 μM; CHIR98014: 1-3 μM; GSK3βi XV: 0.05-0.2 μM); RA pathway agonists (TTNPB: 0.5-10 μM; Ch55: 1-5 μM; AM580: 0.1-1 μM); Rock inhibitors (TZV: 2-10 μM; Y27632: 2-15 μM; Fasudil: 2-10 μM; HA1100: 2-10 μM); TGFβ inhibitors (A8301: 0.1-5 μM; SB431542: 2-50 μM; LY364947: 0.5 μM; LY21: 0.5 μM; 616452: 10 μM).
In several experiments, to testing the reprogramming efficiency after regulate each small molecules, the indicated small molecules were removed from the cocktails. The concentration of the small molecules used to targeting the same pathway or targets were indicated as follow: GSK3 inhibitors (CHIR99021: 3-15 μM; TD114-2: 0.5-2 μM; CHIR98014: 1-3 μM; GSK3βi XV: 0.05-0.2 μM); TGFβ inhibitors (A8301: 0.2-5 μM; SB431542: 2-50 μM; 616452: 10 μM); RA pathway agonists (TTNPB: 0.2-10 μM; Ch55: 1-10 μM; AM580: 0.1-1 μM); Rock inhibitors (Y27632: 2-15 μM; Fasudil: 2-10 μM; HA1100: 2-10 μM; TZV: 2-10 μM); Smoothened agonists (SAG: 0.2-2 μM; Purmorphamine: 0.5-2 μM; Hg-Ag1.5: 0.5-1 μM; Human shh: 20-200 μM); histone demethylation inhibitors (Tranylcypromine: 2-50 μM; GSK2879: 0.02-2 μM; LSD-C76: 0.2-5 μM; S2101: 0.5-5 μM; LSD-2D: 0.2-5 μM; RN-1: 0.2-5 μM); DNMT inhibitors (5-azaC: 2-15 μM; Decitabine: 0.5-10 μM; RG108: 0.5-10 μM); JNK inhibitors (JNK-in-8: 0.2-2 μM; JNK-in-5: 0.5-1 μM; JNK-in-7: 0.2-2 μM; JNK-in-12: 0.2-0.5 μM); CBP/p300 bromodomain inhibitor (SGC-CBP30: 0.5-2 μM; I-CBP112: 0.5-5 μM; GNE272: 0.5-5μM; GNE409:0.5-5μM); Menin-MLL interaction inhibitor (VTP50469: 0.5-2μM; MI3454: 0.5-2μM; WDR5-IN-4: 0.5-2μM).

DNA CpG methylation = test: DNA methylation levels after withdrawing individual chemicals from stage II; assay type: cell-based, human
Source text: (§1) In several experiments, to testing the reprogramming efficiency after regulate each small molecules, the indicated small molecules were removed from the cocktails. […]
To perform alignments of bisulfite-treated reads correctly, the Bismark Bisulfite Mapper pipeline was followed. […] Sequence reads were similarly transformed and mapped to prepared genomes using Bowtie2 with parameters set by Bismark. […] In this way, the number of reads were obtained that supported methylation and the number of reads covering every CpG site, non-CpG sites were not considered in later analysis.
To identify the sites showing evidence of methylation, binomial test was performed to each site on these counts to test whether the methylation counts are beyond bisulfite non-conversion events. […] Methylation level for each CpG site passed the test was defined as the fraction of reads supporting methylation out of reads that cover the site (mCpG/CpG). […] The mean CpG methylation level of each sample was calculated as the fraction of all reads supporting CpG methylation out of reads that cover CpG site (all mCpG / all CpG).

other human kinases = settings: cited from earlier work
SALL4 = test: Withdrawing individual chemicals from stage II: SALL4 activation; assay type: cell-based, human
Description: as §1
Total RNA was isolated using Direct-zol RNA MiniPrep Kit (Zymo Research, R2053). cDNA was synthesized from 0.5-1 μg of total RNA using TransScript First-Strand cDNA Synthesis SuperMix (TransGen Biotech, AT311-03). qPCR was performed by using KAPA SYBR FAST qPCR Kit Master Mix (KAPA Biosystems, KM4101) on a CFX ConnectTM Real-Time System (Bio-Rad). The data were analyzed using the delta-delta Ct method. […]

[1] = system: genes that activated at stage II; test: Withdrawing individual chemicals from stage II: plasticity signatures and chromatin accessibility; assay type: cell-based, human
Description: as §1
Approximately 5×10^4 cells of each sample were collected and washed once with cold PBS and re-suspended in 50 μL Lysis buffer (10 mM Tris-HCl PH7.4, 10 mM NaCl, 3 mM MgCl2, 0.5% NP-40). […] All ATAC libraries were sequenced on an Illumina Novaseq 6000 platform and 150 bp paired-end reads were generated. […]
Quality control was performed using FastQC to all samples. The raw ATAC-seq reads were trimmed using Trimmomatic with parameter ‘[…]:NexteraPE-PE.fa:2:30:7:1:true LEADING:3 TRAILING:3 SLIDINGWINDOW:4:15 MINLEN:36’ to remove detected adapters. Then the clean reads were mapped to human reference genome hg19 using Bowtie2 with parameter ‘—very-sensitive’. […] Duplicated reads were removed using MarkDuplicates function of Picard tools. Low quality mapped reads and reads mapped to mitochondrial were filtered using Samtools. […]
Overlapped peaks in different samples were merged and defined sample specific peak sets using R package ChIPpeakAnno. […] The ATAC signal strength around peak region or gene promoter region was quantified using Deeptools.

[2] = system: cellular retinoic acid binding protein (CRABP); settings: cited from earlier work

Nc1ncn([C@@H]2O[C@H](CO)[C@@H](O)[C@H]2O)c(=O)n1 [5-Azacytidine]
generation of hCiPSCs (human somatic cells): greatly impaired
development of a hypo-methylated state (DNA CpG methylation): required

CN(C)CCOc1ccc(-c2nc(-c3ccc4c(c3)CCC4=NO)c(-c3ccncc3)[nH]2)cc1 [SB590885, 5-[2-[4-[2-(Dimethylamino)ethoxy]phenyl]-5-(4-pyridinyl)-1H-imidazol-4-yl]-2,3-dihydro-1H-inden-1-one oxime]
inhibition to other human kinases (other human kinases): no inhibition

Cc1cc(NC(=O)c2cccc(NC(=O)/C=C/CN(C)C)c2)ccc1Nc1nccc(-c2cccnc2)n1 [JNKIN8]
generation of hCiPSCs (human somatic cells): greatly impaired
activation of SALL4 (SALL4): required
opened chromatin status of the genes activated at stage II ([1]; chromatin accessibility analysis): essential
acquisition of plasticity signatures ([1]; stage II): required

CC(C)(C)c1cc(C(=O)/C=C/c2ccc(C(=O)O)cc2)cc(C(C)(C)C)c1 [Ch 55, 4-[(1E)-3-[3,5-bis(1,1-Dimethylethyl)phenyl]-3-oxo-1-propenyl]benzoic acid]
affinity for CRABP [2]: low affinity
